Source: patent US20130252935A1, “Monobactams” (PFIZER INC., priority 2010, published 2013)
≈ marks a conversion by molar mass, not a printed value.

Tests used:
Format in all cases: cell-based
[1] = test system: Klebsiella pneumoniae 1000-02; test: minimum inhibitory concentration (MIC) testing according to CLSI guidelines, Klebsiella pneumoniae; details: Klebsiella pneumoniae; ciprofloxacin-resistant, ESBL-expressing clinical isolate 1000-02; overnight incubation; lower of duplicate values; read-out: AB-MBT: Klebsiella pneumoniae 1000-02: MIC (MstRcnt)
Protocol: (§1) In order to assess the compounds biological activity, the in vitro anti-bacterial activity of selected compounds described in the Examples 1-69 was evaluated by minimum inhibitory concentration (MIC) testing according to Clinical and Laboratory Standards Institute (CLSI, formerly NCCLS) guidelines. See: Clinical and Laboratory Standards Institute. Methods for Dilution Antimicrobial Susceptibility Tests for Bacteria that Grow Aerobically; Approved Standard-Eighth Edition. CLSI document M7-A8 [ISBN 1-56238-689-1]. Clinical and Laboratory Standards Institute, 940 West Valley Road, Suite 1400, Wayne, Pa. 19087-1898 USA, 2006; also Clinical and Laboratory Standards Institute. Performance Standards for Antimicrobial Susceptibility Testing; Twentieth Informational Supplement. CLSI document M100-S20 [ISBN1-56238-716-2]. Clinical and Laboratory Standards Institute.
(§2) The MIC determination is a standard laboratory method for evaluating the antibacterial activity of a compound. The MIC represents the lowest drug concentration that inhibits visible growth of bacteria following overnight incubation. […] Typically, the drug concentration range is broken down into 2-fold increments (e.g. 0.06 μg/mL, 0.12 μg/mL. 0.25 μg/mL, 0.50 μg/mL, 1.0 μg/mL, etc.) and the various drug concentrations are all individually incubated overnight with approximately the same number of bacteria. The MIC is then determined by visually inspecting the drug effect at each concentration, and identifying the lowest drug concentration that has inhibited bacterial growth as compared to the drug free control. Typically, bacteria continue to grow at drug concentrations lower than the MIC and don't grow at concentrations at and above the MIC.
(§3) The MIC values described in Table 1 below were derived from assays wherein each test compound was evaluated in duplicate. In cases where the duplicate values varied by 0-2-fold, the lower of the two values was reported below. Generally speaking, if the duplicate values varied by more than 2-fold, the assay was considered non-valid and was repeated until the variation between duplicate runs was ≦2-fold. In line with the CLSI guidelines referred to above, both control organisms and reference compounds were utilized in each MIC assay to provide proper quality control. MIC values generated with these control organisms and reference compounds were required to fall within a defined range for the assay to be considered valid and be included herein. Those skilled in the art will recognize that MIC values can and do vary from experiment to experiment. Generally speaking, it should be recognized that MIC values often vary +/−2-fold from experiment to experiment. While a single MIC is reported for each compound and each microorganism, the reader should not conclude that each compound was only tested once. Several of the compounds were subjected to multiple tests. The data reported in Table 1 is reflective of the compounds relative activity and different MICs may have been generated on these occasions in light with the guidelines described above.
(§4) The following bacterial strains were used in these MIC determinations:
2) Klebsiella pneumoniae: Ciprofloxacin-resistant isolate, expresses extended-spectrum beta-lactamases (ESBL), clinical isolate, labeled as 1000-02;

[2] = test system: Pseudomonas aeruginosa UC-12120; test: minimum inhibitory concentration (MIC) testing according to CLSI guidelines, Pseudomonas aeruginosa; details: Pseudomonas aeruginosa, UC12120; UC-12120, wild-type, labeled as 1091-05; overnight incubation; lower of duplicate values; read-out: AB-MBT: Pseudomonas aeruginosa 1091-05: MIC (MstRcn)
Protocol: as §1, §2, §3, §4
1) Pseudomonas aeruginosa UC-12120: Wild-type, labeled as 1091-05;

[3] = test system: Acinetobacter baumannii/haemolyticus AB-3167; test: minimum inhibitory concentration (MIC) testing according to CLSI guidelines, Acinetobacter; details: Acinetobacter baumannii; multidrug-resistant clinical isolate AB-3167; overnight incubation; lower of duplicate values; read-out: AB-MBT: Acinetobacter baumanii AB-3167: MIC (MstRcnt)
Protocol: as §1, §2, §3, §4
3) Acinetobacter baumannii/haemolyticus: Multidrug-resistant clinical isolate, labeled as AB-3167.

Row | MIC [1] [µg/mL] | MIC [2] [µg/mL] | SMILES | MIC [3] [µg/mL]
1 | 0.25 (≈ 0.372 µM) | 0.25 (≈ 0.372 µM) | CC(C)(O/N=C(\C(=O)N[C@@H]1C(=O)N(S(=O)(=O)O)[C@@H]1Cn1cc(COCc2cc(=O)c(O)cn2O)nn1)c1csc(N)n1)C(=O)O [Example 1, 2-({[(1Z)-1-(2-amino-1,3-thiazol-4-yl)-2-({(2R,3S)-2-[(4-{[(1,5-dihydroxy-4-oxo-1,4-dihydropyridin-2-yl)methoxy]methyl}-1H-1,2,3-triazol-1-yl)methyl]-4-oxo-1-sulfoazetidin-3-yl}amino)-2-oxoethylidene]amino}oxy)-2-methylpropanoic acid] | 0.5 (≈ 0.744 µM)
2 | 8 (≈ 13.1 µM) | 2 (≈ 3.27 µM) | CC(C)(O/N=C(\C(=O)N[C@@H]1C(=O)N(S(=O)(=O)O)[C@@H]1Cn1cc(-c2cc(=O)c(O)c[nH]2)nn1)c1csc(N)n1)C(=O)O [Example 2, 2-({[(1Z)-1-(2-amino-1,3-thiazol-4-yl)-2-{[(2R,3S)-2-{[4-(5-hydroxy-4-oxo-1,4-dihydropyridin-2-yl)-1H-1,2,3-triazol-1-yl]methyl}-4-oxo-1-sulfoazetidin-3-yl]amino}-2-oxoethylidene]amino}oxy)-2-methylpropanoic acid] | 8 (≈ 13.1 µM)
3 | 0.25 (≈ 0.398 µM) | 0.125 (≈ 0.199 µM) | CC(C)(O/N=C(\C(=O)N[C@@H]1C(=O)N(S(=O)(=O)O)[C@@H]1Cn1cc(-c2cc(=O)c(O)cn2O)nn1)c1csc(N)n1)C(=O)O [Example 3, 2-({[(1Z)-1-(2-amino-1,3-thiazol-4-yl)-2-{[(2R,3S)-2-{[4-(1,5-dihydroxy-4-oxo-1,4-dihydropyridin-2-yl)-1H-1,2,3-triazol-1-yl]methyl}-4-oxo-1-sulfoazetidin-3-yl]amino}-2-oxoethylidene]amino}oxy)-2-methylpropanoic acid] | 0.5 (≈ 0.797 µM)
4 | 0.125 (≈ 0.198 µM) | 0.125 (≈ 0.198 µM) | CC(C)(O/N=C(\C(=O)N[C@@H]1C(=O)N(S(=O)(=O)O)[C@@H]1CNC(=O)NCc1cc(=O)c(O)cn1O)c1csc(N)n1)C(=O)O [Example 4, 2-({[(1Z)-1-(2-amino-1,3-thiazol-4-yl)-2-({(2R,3S)-2-[({[(1,5-dihydroxy-4-oxo-1,4-dihydropyridin-2-yl)methyl]carbamoyl}amino)methyl]-4-oxo-1-sulfoazetidin-3-yl}amino)-2-oxoethylidene]amino}oxy)-2-methylpropanoic acid] | 0.5 (≈ 0.79 µM)
5 | 4 | 0.125 | CC(C)(O/N=C(\C(=O)N[C@@H]1C(=O)N(S(=O)(=O)[O-])[C@@H]1CNC(=O)OCc1cc(=O)c(O)cn1O)c1csc(N)n1)C(=O)[O-].[Na+].[Na+] [Example 5, disodium 2-({[(1Z)-1-(2-amino-1,3-thiazol-4-yl)-2-({(2R,3S)-2-[({[(1,5-dihydroxy-4-oxo-1,4-dihydropyridin-2-yl)methoxy]carbonyl}amino)methyl]-4-oxo-1-sulfonatoazetidin-3-yl}amino)-2-oxoethylidene]amino}oxy)-2-methylpropanoate] | 1
6 | 8 (≈ 12.4 µM) | – | CC(C)(O/N=C(\C(=O)N[C@@H]1C(=O)N(S(=O)(=O)O)[C@@H]1COC(=O)CNC(=O)c1cc(O)c(O)cn1)c1csc(N)n1)C(=O)O [Example 6, 2-({[(1Z)-1-(2-amino-1,3-thiazol-4-yl)-2-({(2S,3S)-2-[({N-[(4,5-dihydroxypyridin-2-yl)carbonyl]glycyl}oxy)methyl]-4-oxo-1-sulfoazetidin-3-yl}amino)-2-oxoethylidene]amino}oxy)-2-methylpropanoic acid] | 1 (≈ 1.55 µM)
7 | 8 (≈ 12.1 µM) | 0.125 (≈ 0.189 µM) | CC(C)(O/N=C(\C(=O)N[C@@H]1C(=O)N(S(=O)(=O)O)[C@@H]1COC(=O)CNC(=O)c1cc(=O)c(O)cn1O)c1csc(N)n1)C(=O)O [Example 7, 2-({[(1Z)-1-(2-amino-1,3-thiazol-4-yl)-2-({(2S,3S)-2-[({N-[(1,5-dihydroxy-4-oxo-1,4-dihydropyridin-2-yl)carbonyl]glycyl}oxy)methyl]-4-oxo-1-sulfoazetidin-3-yl}amino)-2-oxoethylidene]amino}oxy)-2-methylpropanoic acid] | 0.5 (≈ 0.756 µM)
8 | 4 (≈ 5.96 µM) | 1 (≈ 1.49 µM) | CC(C)(O/N=C(\C(=O)N[C@@H]1C(=O)N(S(=O)(=O)O)[C@@H]1CNC(=O)C1CN(C(=O)c2cc(=O)c(O)c[nH]2)C1)c1csc(N)n1)C(=O)O [Example 8, 2-({[(1Z)-1-(2-amino-1,3-thiazol-4-yl)-2-{[(2R,3S)-2-{[({1-[(5-hydroxy-4-oxo-1,4-dihydropyridin-2-yl)carbonyl]azetidin-3-yl}carbonyl)amino]methyl}-4-oxo-1-sulfoazetidin-3-yl]amino}-2-oxoethylidene]amino}oxy)-2-methylpropanoic acid] | 1 (≈ 1.49 µM)
9 | 4 (≈ 6.09 µM) | 4 (≈ 6.09 µM) | CC(C)(O/N=C(\C(=O)N[C@@H]1C(=O)N(S(=O)(=O)O)[C@@H]1CNC(=O)C1CN(Cc2cc(=O)c(O)c[nH]2)C1)c1csc(N)n1)C(=O)O [Example 9, 2-({[(1Z)-1-(2-amino-1,3-thiazol-4-yl)-2-{[(2R,3S)-2-{[({1-[(5-hydroxy-4-oxo-1,4-dihydropyridin-2-yl)methyl]azetidin-3-yl}carbonyl)amino]methyl}-4-oxo-1-sulfoazetidin-3-yl]amino}-2-oxoethylidene]amino}oxy)-2-methylpropanoic acid] | 2 (≈ 3.05 µM)
10 | 0.5 (≈ 0.851 µM) | 0.125 (≈ 0.213 µM) | CC(C)(O/N=C(\C(=O)N[C@@H]1C(=O)N(S(=O)(=O)O)[C@@H]1CNC(=O)c1cc(=O)c(O)c[nH]1)c1csc(N)n1)C(=O)O [Example 10, 2-({[(1Z)-1-(2-amino-1,3-thiazol-4-yl)-2-{[(2R,3S)-2-({[(5-hydroxy-4-oxo-1,4-dihydropyridin-2-yl)carbonyl]amino}methyl)-4-oxo-1-sulfoazetidin-3-yl]amino}-2-oxoethylidene]amino}oxy)-2-methylpropanoic acid] | 0.25 (≈ 0.425 µM)
11 | 0.06 | 0.5 | CC(C)(O/N=C(\C(=O)N[C@@H]1C(=O)N(S(=O)(=O)[O-])[C@@H]1CNC(=O)c1cc(=O)c(O)cn1O)c1csc(N)n1)C(=O)[O-].[Na+].[Na+] [Example 11, 2-({[(1Z)-1-(2-amino-1,3-thiazol-4-yl)-2-{[(2R,3S)-2-({[(1,5-dihydroxy-4-oxo-1,4-dihydropyridin-2-yl)carbonyl]amino}methyl)-4-oxo-1-sulfoazetidin-3-yl]amino}-2-oxoethylidene]amino}oxy)-2-methylpropanoic acid, disodium salt] | 1
12 | 0.25 (≈ 0.381 µM) | 4 (≈ 6.1 µM) | CC(C)(O/N=C(\C(=O)N[C@@H]1C(=O)N(S(=O)(=O)O)[C@@H]1COC(=O)c1cc(-c2cc(=O)c(O)c[nH]2)no1)c1csc(N)n1)C(=O)O [Example 12, 2-({[(1Z)-1-(2-amino-1,3-thiazol-4-yl)-2-({(2S,3S)-2-[({[3-(5-hydroxy-4-oxo-1,4-dihydropyridin-2-yl)isoxazol-5-yl]carbonyl}oxy)methyl]-4-oxo-1-sulfoazetidin-3-yl}amino)-2-oxoethylidene]amino}oxy)-2-methylpropanoic acid] | 16 (≈ 24.4 µM)
13 | 0.125 (≈ 0.186 µM) | 0.25 (≈ 0.372 µM) | CC(C)(O/N=C(\C(=O)N[C@@H]1C(=O)N(S(=O)(=O)O)[C@@H]1COC(=O)c1cc(-c2cc(=O)c(O)cn2O)no1)c1csc(N)n1)C(=O)O [Example 13, 2-({[(1Z)-1-(2-amino-1,3-thiazol-4-yl)-2-({(2S,3S)-2-[({[3-(1,5-dihydroxy-4-oxo-1,4-dihydropyridin-2-yl)isoxazol-5-yl]carbonyl}oxy)methyl]-4-oxo-1-sulfoazetidin-3-yl}amino)-2-oxoethylidene]amino}oxy)-2-methylpropanoic acid] | 0.5 (≈ 0.745 µM)
